Patent publication US5484773A, “Treatment of antibiotic associated diarrhea” (priority 1994, dated 1996)

How the values were obtained:
CDAD or PMC = details: cited from earlier work; for patients in whom diarrhea returns after discontinuing antibiotic treatment: after oral Metronidazole or Vancomycin therapy, ref. [15]; for therapy effective, share of patients who suffer from CDAD or PMC: oral Metronidazole or Vancomycin with removal of offending drug and fluid replacement
C. difficile toxin A [1] = target: T1, C. difficile toxin A (Clostridioides difficile, UniProt P16154); assay: Screening: neutralization of purified toxin A hemagglutination activity by SYNSORBs (Example 1, FIG. 1); format: biochemical, Clostridium difficile
T1 construct: Toxin A was isolated from a toxin producing strain of C. difficile; made in house; host or cells: Clostridium difficile ATCC 43255 (VPI strain 10463), native toxin from culture supernatant, not recombinant
Protocol: The amount of toxin A adsorption to SYNSORB was determined by assaying supernatants for reduction of endpoint titers in hemagglutination assays relative to controls without any added SYNSORB. […] SYNSORBs 2, 5, 104, 105, and 134 neutralized about 50% of toxin A activity.
Toxin A was isolated from a toxin producing strain of C. difficile (ATCC 43255, VPI strain 10463) using slight modifications of the method of Sullivan et al..
C. difficile was grown in 2.3 liter of brain heart infusion broth (BHIB) in anaerobic jars for 72 hours at 37° C. The crude culture was centrifuged at 5,000× g for 20 minutes to sediment the bacteria. The resulting culture supernatant was carefully removed and solid ammonium sulfate (897 g) was added to make 60% saturation. […]
Fresh rabbit erythrocytes were washed once in phosphate buffered saline (PBS) and resuspended at a concentration of 4% (v/v) in cold PBS. […] After incubating the plate for 4 hours at 4° C., the hemagglutination titer was visually assessed. […]
After incubation, the SYNSORB was allowed to settle to the bottom of the tubes and the supernatants were carefully removed. Serial 2-fold dilutions of the supernatants were prepared and the hemagglutination endpoint determined as described above.
The extent of reduction in the endpoint in the presence of SYNSORB was determined by comparing the endpoint with that of controls in which SYNSORB was not added. […]

C. difficile toxin A [2] = target: T1, C. difficile toxin A; assay: Determination of optimal binding conditions (amount and incubation time) for toxin A neutralization, hemagglutination (Example 2, FIGS. 2 and 3); format: biochemical, Clostridium difficile; details: about 20 mg SYNSORB per 1 ml toxin A solution (20 mg/ml); 2 hours, 37° C.; FIG. 2
Protocol: (§1) Fresh rabbit erythrocytes were washed once in phosphate buffered saline (PBS) and resuspended at a concentration of 4% (v/v) in cold PBS. Serial 2-fold dilutions (50 μl) of toxin A-containing solutions were made in cold PBS in U-shaped microtiter wells. An equal volume (50 μl) of rabbit erythrocytes was then added to each well and the microtiter plate was mixed gently. After incubating the plate for 4 hours at 4° C., the hemagglutination titer was visually assessed.
The amount of SYNSORBS 52 and 90 required for maximal toxin A neutralization was determined by adding 1 ml of a purified toxin A solution to pre-weighed amounts of each SYNSORB in 1.5 ml microcentrifuge tubes. SYNSORB 52 samples were tested using 12.8, 21.6 and 43.3 mg amounts of SYNSORB 52; SYNSORB 90 samples were tested using 12.9, 19.2 and 42.3 mg amounts of SYNSORB 90. Samples were incubated for 2 hours at 37° C. on an end-over-end rotator. […]
The amount of neutralization in each sample was determined by comparing the endpoint titers of hemagglutination assays from samples with and without SYNSORB.
The length of incubation time required for optimal neutralization was determined by incubating microcentrifuge tubes containing 1 ml of purified toxin A solution and 20 mg of either SYNSORB 52 or SYNSORB 90. […]
The degree of neutralization at each incubation period was determined as described above.

C. difficile toxin A [3] = target: T1, C. difficile toxin A; assay: Determination of binding affinity of SYNSORBs to toxin A, hemagglutination titer reduction (Example 4, FIG. 4); design: species or system Clostridium difficile; details: rabbit erythrocytes
Protocol: For the purposes of this invention, oligosaccharide sequences attached to solid supports which bind toxin A means those compositions which reduce endpoint titers from hemagglutination assays by at least 50%.
as §1
To assess the binding affinity of various SYNSORBs to toxin A, each SYNSORB was combined with toxin A as described in Example 1. Endpoint titers from hemagglutination assays using rabbit erythocytes were determined as described previously. […] Those SYNSORBs which reduced titers by greater than 50% were deemed to bind toxin A.

T1 sequence (P16154 whole entry, looked up): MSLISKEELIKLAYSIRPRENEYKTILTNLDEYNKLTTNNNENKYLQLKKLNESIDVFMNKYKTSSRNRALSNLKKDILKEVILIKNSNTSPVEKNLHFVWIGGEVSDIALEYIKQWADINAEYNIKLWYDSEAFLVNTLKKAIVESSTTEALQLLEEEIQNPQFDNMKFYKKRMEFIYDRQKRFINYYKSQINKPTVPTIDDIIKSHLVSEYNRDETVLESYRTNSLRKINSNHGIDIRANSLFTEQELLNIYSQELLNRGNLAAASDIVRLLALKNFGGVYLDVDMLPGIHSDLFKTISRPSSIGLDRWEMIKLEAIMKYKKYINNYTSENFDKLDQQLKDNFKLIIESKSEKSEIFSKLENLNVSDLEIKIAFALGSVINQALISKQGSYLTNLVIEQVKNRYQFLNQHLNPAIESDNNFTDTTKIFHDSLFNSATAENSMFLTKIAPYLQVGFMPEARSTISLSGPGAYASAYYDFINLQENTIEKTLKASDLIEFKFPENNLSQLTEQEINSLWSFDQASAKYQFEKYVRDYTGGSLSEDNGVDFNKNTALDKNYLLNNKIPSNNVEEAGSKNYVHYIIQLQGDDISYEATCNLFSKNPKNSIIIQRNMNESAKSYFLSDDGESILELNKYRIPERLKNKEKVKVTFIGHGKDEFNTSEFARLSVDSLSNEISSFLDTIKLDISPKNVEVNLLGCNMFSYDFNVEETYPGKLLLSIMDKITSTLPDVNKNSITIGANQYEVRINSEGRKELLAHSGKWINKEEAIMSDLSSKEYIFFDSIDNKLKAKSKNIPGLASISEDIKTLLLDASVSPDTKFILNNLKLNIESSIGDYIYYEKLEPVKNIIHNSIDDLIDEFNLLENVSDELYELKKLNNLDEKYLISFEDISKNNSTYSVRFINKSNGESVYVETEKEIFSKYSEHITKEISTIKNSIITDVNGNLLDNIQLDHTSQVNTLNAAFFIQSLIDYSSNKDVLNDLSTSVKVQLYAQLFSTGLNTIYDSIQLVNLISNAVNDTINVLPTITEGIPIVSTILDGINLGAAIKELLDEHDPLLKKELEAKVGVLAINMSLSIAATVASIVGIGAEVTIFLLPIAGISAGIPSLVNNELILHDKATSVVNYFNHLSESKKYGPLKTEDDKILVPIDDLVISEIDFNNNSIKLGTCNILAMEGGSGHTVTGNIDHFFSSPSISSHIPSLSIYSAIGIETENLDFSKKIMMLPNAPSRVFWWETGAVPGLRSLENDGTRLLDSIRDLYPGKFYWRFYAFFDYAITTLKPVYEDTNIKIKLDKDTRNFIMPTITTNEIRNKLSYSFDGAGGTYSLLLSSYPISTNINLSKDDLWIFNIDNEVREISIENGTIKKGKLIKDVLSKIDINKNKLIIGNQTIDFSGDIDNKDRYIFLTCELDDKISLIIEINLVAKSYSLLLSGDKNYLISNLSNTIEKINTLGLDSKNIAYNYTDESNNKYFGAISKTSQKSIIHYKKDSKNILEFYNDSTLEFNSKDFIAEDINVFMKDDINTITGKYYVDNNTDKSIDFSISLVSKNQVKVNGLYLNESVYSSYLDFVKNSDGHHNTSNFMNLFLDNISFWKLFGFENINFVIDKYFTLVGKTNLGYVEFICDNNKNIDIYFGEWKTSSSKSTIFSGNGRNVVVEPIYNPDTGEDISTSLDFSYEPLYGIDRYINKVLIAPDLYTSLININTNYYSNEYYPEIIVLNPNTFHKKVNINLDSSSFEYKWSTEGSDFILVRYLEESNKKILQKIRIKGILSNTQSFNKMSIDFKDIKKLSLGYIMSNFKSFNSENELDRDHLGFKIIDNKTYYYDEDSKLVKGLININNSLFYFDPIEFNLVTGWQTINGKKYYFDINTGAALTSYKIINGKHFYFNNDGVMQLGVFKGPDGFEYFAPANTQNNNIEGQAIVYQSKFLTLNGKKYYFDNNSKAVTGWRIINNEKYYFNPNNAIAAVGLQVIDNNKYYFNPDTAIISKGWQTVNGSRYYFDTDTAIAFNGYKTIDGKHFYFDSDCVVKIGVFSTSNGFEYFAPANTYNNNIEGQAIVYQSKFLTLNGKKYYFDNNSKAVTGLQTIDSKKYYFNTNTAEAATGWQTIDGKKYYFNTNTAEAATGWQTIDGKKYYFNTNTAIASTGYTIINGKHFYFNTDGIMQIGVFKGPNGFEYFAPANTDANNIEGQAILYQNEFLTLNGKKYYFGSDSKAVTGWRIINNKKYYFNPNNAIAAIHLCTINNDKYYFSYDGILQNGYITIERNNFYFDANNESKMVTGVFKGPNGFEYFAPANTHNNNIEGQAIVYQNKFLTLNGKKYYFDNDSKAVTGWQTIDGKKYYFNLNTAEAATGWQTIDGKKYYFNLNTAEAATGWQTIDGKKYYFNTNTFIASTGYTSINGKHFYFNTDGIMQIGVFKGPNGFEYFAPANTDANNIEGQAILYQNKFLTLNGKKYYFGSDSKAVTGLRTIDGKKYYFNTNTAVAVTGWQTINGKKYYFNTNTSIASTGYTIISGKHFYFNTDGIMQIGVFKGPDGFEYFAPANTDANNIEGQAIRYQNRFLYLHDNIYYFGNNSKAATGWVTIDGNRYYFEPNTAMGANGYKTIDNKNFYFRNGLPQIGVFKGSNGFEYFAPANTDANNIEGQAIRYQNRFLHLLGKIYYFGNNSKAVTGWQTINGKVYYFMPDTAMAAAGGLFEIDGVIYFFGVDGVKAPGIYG

Cc1ncc([N+](=O)[O-])n1CCO [Metronidazole]
patients in whom diarrhea returns after discontinuing antibiotic treatment (CDAD or PMC): about 20% | therapy effective, share of patients who suffer from CDAD or PMC (CDAD or PMC): about 80%

CN[C@H](CC(C)C)C(=O)N[C@H]1C(=O)N[C@@H](CC(N)=O)C(=O)N[C@H]2C(=O)N[C@H]3C(=O)N[C@H](C(=O)N[C@H](C(=O)O)c4cc(O)cc(O)c4-c4cc3ccc4O)[C@H](O)c3ccc(c(Cl)c3)Oc3cc2cc(c3O[C@@H]2O[C@H](CO)[C@@H](O)[C@H](O)[C@H]2O[C@H]2C[C@](C)(N)[C@H](O)[C@H](C)O2)Oc2ccc(cc2Cl)[C@H]1O [Vancomycin]
patients in whom diarrhea returns after discontinuing antibiotic treatment (CDAD or PMC): about 20% | therapy effective, share of patients who suffer from CDAD or PMC (CDAD or PMC): about 80%

αGal(1-3)βGal(1-3)βGlcNAc [SYNSORB 134]
removal/neutralization of toxin A activity (reduction of endpoint titers in hemagglutination assays) (C. difficile toxin A [1]; purified toxin A 0.5 ml, 10.1 to 17.5 mg SYNSORB, room temperature, 2 hours, rabbit erythrocytes): about 50%

αGal(1-3)βGal(1-4)βGlc [SYNSORB 90]
neutralization of toxin A activity (C. difficile toxin A [2]): more than 75% | neutralization of toxin A activity (in words) (C. difficile toxin A [1]; purified toxin A, hemagglutination vs controls without SYNSORB): as effective at neutralizing toxin A activity

αGal(1-4)βGal(1-4)βGlc [SYNSORB 68]
binding to toxin A (criterion: titer reduced by greater than 50%) (C. difficile toxin A [3]): bind toxin A

αNeuAc(2-6)βGal(1-4)βGlc [SYNSORB 89]
binding to toxin A (criterion: titer reduced by greater than 50%) (C. difficile toxin A [3]): appear not to bind toxin A

βGal(1-4)βGlcNAc [SYNSORB 34]
binding to toxin A (criterion: titer reduced by greater than 50%) (C. difficile toxin A [3]): appear not to bind toxin A
